The structures appear in SMILES notation. Numbered stars: 1 amine (or outer) side, 2 acyl side, 3 side chain; on linkers, the order of the positions; unused ones are H or OH. Bridge positions count the residues as written; N and C are the ends. Square brackets hold non-standard residues; d marks the D form. Peptide text beside a SMILES is read from it. * marks the point of attachment. ξ: configuration not given here. Phe(4-CH2CH2COOH) = N[C@@H](Cc1ccc(CCC(=O)O)cc1)C(=O)O; Phe(3-CF3) = N[C@@H](Cc1cccc(C(F)(F)F)c1)C(=O)O; Ala(morpholin-4-yl) = N[C@@H](CN1CCOCC1)C(=O)O; Phe(4-COOH) = N[C@@H](Cc1ccc(C(=O)O)cc1)C(=O)O; Bip = N[C@@H](Cc1ccc(-c2ccccc2)cc1)C(=O)O; NH(CH2)14COOH = O=C(O)CCCCCCCCCCCCCCN*; Phe(3-Me) = Cc1cccc(C[C@H](N)C(=O)O)c1; γGlu = O=C(O)[C@H](CCC(=O)[*:2])N[*:1]; NH(CH2)12COOH = O=C(O)CCCCCCCCCCCCN*; PEG6 = NCCOCCOCCOCCOCCOCCOCCC(=O)O; Val(3-OH) = CC(C)(O)[C@H](N)C(=O)O; 4Pal = N[C@@H](Cc1ccncc1)C(=O)O; 3Thi = N[C@@H](Cc1ccsc1)C(=O)O; Cha = N[C@@H](CC1CCCCC1)C(=O)O; Thr(3ξ) = CC(O)[C@H](N)C(=O)O; 12Ado = NCCCCCCCCCCCC(=O)O; Carboxymethyl = O=C(O)C*; Orn = NCCC[C@H](N)C(=O)O; Aun = NCCCCCCCCCCC(=O)O; Dab = NCC[C@H](N)C(=O)O; Dap = NC[C@H](N)C(=O)O; AEEA = NCCOCCOCC(=O)O; CF3 = FC(F)(F)*

A word on the IC50: it is the concentration that inhibits the measured activity by half.

For this experiment, the target named is T1, PD-1/PD-L1 interaction (PE-labeled human PD-L1-Ig binding to Jurkat cell line over-expressing human PD-1) (Homo sapiens, UniProt Q15116).
T1 construct: expressed in transfected cells; host or cells: Jurkat
T1 sequence (Q15116 25-288): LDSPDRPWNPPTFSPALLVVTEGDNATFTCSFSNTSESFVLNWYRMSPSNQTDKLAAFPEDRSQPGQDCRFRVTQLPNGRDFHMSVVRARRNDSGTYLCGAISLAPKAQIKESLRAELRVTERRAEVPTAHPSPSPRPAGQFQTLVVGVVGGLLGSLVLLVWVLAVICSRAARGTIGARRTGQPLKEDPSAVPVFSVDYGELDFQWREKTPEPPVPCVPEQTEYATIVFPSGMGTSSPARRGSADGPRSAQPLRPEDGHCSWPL
The experiment in a line: Jurkat-PD-1 Cell Binding High-Content Screening Assay (CBA). Format: cell-based. The settings on record: Jurkat cell line over-expressing human PD-1; PE-labeled PD-L1-Ig 20 nM final; read-out: Jurkat hPD1-PDL1 IC50. Put shortly:
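Read-out is high-content imaging of cell-bound phycoerythrin-tagged PD-L1-Ig on fixed, Hoechst-counterstained Jurkat cells that over-express human PD-1. Compound exposure lasts 2 h at 37° C before the labeled ligand (20 nM final) is added for a further hour.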
Turning to `CC(C)C[C@H]1NC(=O)[C@H](CCCN)NC(=O)[C@H](CCC(=O)O)NC(=O)[C@H](Cc2ccc(-c3ccccc3)cc2)NC(=O)[C@H](C(C)C)NC(=O)[C@H](Cc2c[nH]c3ccccc23)NC(=O)[C@H](CC(=O)O)NC(=O)[C@H](Cc2ccc(C(=O)O)cc2)NC(=O)[C@H](Cc2ccc(OCC(=O)O)cc2)NC(=O)CSC[C@@H](C(=O)N[C@@H](CC(N)=O)C(=O)NCCOCCOCCOCCOCCOCCOCCC(=O)N[C@@H](CCCN)C(=O)NCCCCCCCCCCCC(=O)O)NC(=O)[C@H](CO)NC(=O)[C@H](C(C)C)NC(=O)[C@H](CC2CCCCC2)NC(=O)[C@H](CCN)NC1=O` [Compound 3045] ({CH2CO}-Y(Carboxymethyl)[Phe(4-COOH)]DWV[Bip]E[Orn][dL][Dab][Cha]VSCN[PEG6][Orn][12Ado]-OH; thioether N-14), the IC50 amounted to 6.4 nM.

Consider `Cc1cccc(C[C@@H]2NC(=O)[C@H](CC(=O)O)NC(=O)[C@H](Cc3ccc(OCC(=O)O)cc3)NC(=O)[C@H](CN)NC(=O)CSC[C@@H](C(=O)N[C@@H](C)C(=O)N[C@@H](CCC(=O)O)C(=O)NCC(=O)NCCCCCCCCCCC(=O)O)NC(=O)[C@H]([C@@H](C)O)NC(=O)[C@H](C(C)C)NC(=O)[C@H](CC3CCCCC3)NC(=O)[C@H](CCN)NC(=O)[C@@H](CC(C)C)NC(=O)[C@H](CCCN)NC(=O)[C@H](CCC(=O)O)NC(=O)[C@H](Cc3ccc(-c4ccccc4)cc3)NC(=O)[C@H](C(C)C)NC2=O)c1` [Compound 1046] ({CH2CO}-[Dap]Y(Carboxymethyl)D[Phe(3-Me)]V[Bip]E[Orn][dL][Dab][Cha]VTCAEG[Aun]-OH; thioether N-14), for which the IC50 was found to be 16.2 nM.

On to `Cc1cccc(C[C@@H]2NC(=O)[C@H](CC(=O)O)NC(=O)[C@H](Cc3ccc(C(=O)O)cc3)NC(=O)[C@H](CN3CCOCC3)NC(=O)CSC[C@@H](C(=O)N[C@@H](CCN)C(=O)NCCOCCOCC(=O)NCCOCCOCC(=O)NCCCCCCCCCCCCC(=O)O)NC(=O)[C@H](CO)NC(=O)[C@H](C(C)(C)O)NC(=O)[C@H](CC3CCCCC3)NC(=O)[C@H](CCN)NC(=O)[C@@H](CC(C)C)NC(=O)[C@H](CCCN)NC(=O)[C@H](Cc3ccc(C(=O)O)cc3)NC(=O)[C@H](Cc3ccc(-c4ccccc4)cc3)NC(=O)[C@H](Cc3ccc(C(=O)O)cc3)NC2=O)c1` [Compound 2900] ({CH2CO}-[Ala(morpholin-4-yl)][Phe(4-COOH)]D[Phe(3-Me)][Phe(4-COOH)][Bip][Phe(4-COOH)][Orn][dL][Dab][Cha][Val(3-OH)]SC[Dab][AEEA][AEEA]-{NH(CH2)12COOH}; thioether N-14), for which the IC50 was 6.2 nM.

Take `CC(C)C[C@H]1NC(=O)[C@H](CCCN)NC(=O)[C@H](C(C)C)NC(=O)[C@H](Cc2ccc(-c3ccccc3)cc2)NC(=O)[C@H](C(C)C)NC(=O)[C@H](Cc2c[nH]c3ccccc23)NC(=O)[C@H](CC(=O)O)NC(=O)[C@H](Cc2ccc(OCC(=O)O)cc2)NC(=O)[C@H](CN)NC(=O)CSC[C@@H](C(=O)NCCOCCOCC(=O)NCCCCCCCCCCC(=O)O)NC(=O)[C@H](CCCCN)NC(=O)[C@H](C(C)C)NC(=O)[C@H](CC2CCCCC2)NC(=O)[C@H](CCN)NC1=O` [Compound 2565] ({CH2CO}-[Dap]Y(Carboxymethyl)DWV[Bip]V[Orn][dL][Dab][Cha]VKC[AEEA][Aun]-OH; thioether N-14): the IC50 worked out at 5.4 nM.

Turning to `Cc1cccc(C[C@@H]2NC(=O)[C@H](CC(=O)O)NC(=O)[C@H](Cc3ccc(OCC(=O)O)cc3)NC(=O)[C@H](CN)NC(=O)CSC[C@@H](C(=O)N[C@@H](CCN)C(=O)NCCOCCOCC(=O)NCCCCCCCCCCC(=O)O)NC(=O)[C@H](CCCN)NC(=O)[C@H](Cc3ccc(O)cc3)NC(=O)[C@H](CC3CCCCC3)NC(=O)[C@H](CCN)NC(=O)[C@@H](CC(C)C)NC(=O)[C@H](CCCN)NC(=O)[C@H](Cc3ccc(O)cc3)NC(=O)[C@H](Cc3ccc(-c4ccccc4)cc3)NC(=O)[C@H](Cc3ccc(O)cc3)NC2=O)c1` [Compound 2505] ({CH2CO}-[Dap]Y(Carboxymethyl)D[Phe(3-Me)]Y[Bip]Y[Orn][dL][Dab][Cha]Y[Orn]C[Dab][AEEA][Aun]-OH; thioether N-14), the half-inhibitory concentration (IC50) came out at 20.9 nM.

Regarding `CC(C)C[C@H]1NC(=O)[C@H](CCCN)NC(=O)[C@H](Cc2ccc(O)cc2)NC(=O)[C@H](Cc2ccc(-c3ccccc3)cc2)NC(=O)[C@H](Cc2ccc(O)cc2)NC(=O)[C@H](Cc2c[nH]c3ccccc23)NC(=O)[C@H](CC(=O)O)NC(=O)[C@H](Cc2ccc(OCC(=O)O)cc2)NC(=O)[C@H](Cc2ccc(OCC(=O)O)cc2)NC(=O)CSC[C@@H](C(=O)NCCOCCOCC(=O)NCCCCCCCCCCC(=O)O)NC(=O)[C@H](CN)NC(=O)[C@H](Cc2ccc(O)cc2)NC(=O)[C@H](CC2CCCCC2)NC(=O)[C@H](CCN)NC1=O` [Compound 2522] ({CH2CO}-Y(Carboxymethyl)Y(Carboxymethyl)DWY[Bip]Y[Orn][dL][Dab][Cha]Y[Dap]C[AEEA][Aun]-OH; thioether N-14), the IC50 was determined as 340 nM.

In the case of `CC(C)C[C@H]1NC(=O)[C@H](CCCN)NC(=O)[C@H](Cc2ccc(OCC(=O)O)cc2)NC(=O)[C@H](Cc2ccc(-c3ccccc3)cc2)NC(=O)[C@H](Cc2ccc(CCC(=O)O)cc2)NC(=O)[C@H](Cc2cccc(C(F)(F)F)c2)NC(=O)[C@H](CC(=O)O)NC(=O)[C@H](Cc2ccc(OC(F)(F)F)cc2)NC(=O)[C@H](C)NC(=O)CSC[C@@H](C(=O)N[C@@H](CCN)C(=O)NCCCCCCCCCCCCCCC(=O)O)NC(=O)[C@H](CCC(=O)O)NC(=O)[C@H](C(C)C)NC(=O)[C@H](CC2CCCCC2)NC(=O)[C@H](CCN)NC1=O` [Compound 3866] ({CH2CO}-AY(CF3)D[Phe(3-CF3)][Phe(4-CH2CH2COOH)][Bip]Y(Carboxymethyl)[Orn][dL][Dab][Cha]VEC[Dab]-{NH(CH2)14COOH}; thioether N-14), the concentration for half-maximal inhibition (IC50) stood at 676 nM.

`CC(C)C[C@H]1NC(=O)[C@H](CCN)NC(=O)[C@H](C(C)C)NC(=O)[C@H](Cc2ccc(-c3ccccc3)cc2)NC(=O)[C@H](C(C)C)NC(=O)[C@H](Cc2c[nH]c3ccccc23)NC(=O)[C@H](CC(=O)O)NC(=O)[C@H](Cc2ccc(OCC(=O)O)cc2)NC(=O)[C@H](Cc2ccsc2)NC(=O)CSC[C@@H](C(=O)N[C@@H](CCN)C(=O)NCCCCCCCCCCC(=O)O)NC(=O)[C@H](C(C)O)NC(=O)[C@H](C(C)C)NC(=O)[C@H](CC2CCCCC2)NC(=O)[C@H](CCN)NC1=O` (stereo partly drawn) [Compound 3282] ({CH2CO}-[3Thi]Y(Carboxymethyl)DWV[Bip]V[Dab][dL][Dab][Cha]V[Thr(3ξ)]C[Dab][Aun]-OH; thioether N-14): the IC50 was 119 nM.

Take `Cc1cccc(C[C@@H]2NC(=O)[C@H](CC(=O)O)NC(=O)[C@H](Cc3ccc(OCC(=O)O)cc3)NC(=O)[C@H](CCN)NC(=O)CSC[C@@H](C(=O)N[C@@H](CCN)C(=O)NCCOCCOCC(=O)NCCOCCOCC(=O)NCCCCCCCCCCCCC(=O)O)NC(=O)[C@H](CC(=O)O)NC(=O)[C@H](C(C)(C)O)NC(=O)[C@H](CC3CCCCC3)NC(=O)[C@H](Cc3c[nH]cn3)NC(=O)[C@@H](CC(C)C)NC(=O)[C@H](CCCN)NC(=O)[C@H](Cc3ccc(C(=O)O)cc3)NC(=O)[C@H](Cc3ccc(-c4ccccc4)cc3)NC(=O)[C@H](Cc3ccc(C(=O)O)cc3)NC2=O)c1` [Compound 2889] ({CH2CO}-[Dab]Y(Carboxymethyl)D[Phe(3-Me)][Phe(4-COOH)][Bip][Phe(4-COOH)][Orn][dL]H[Cha][Val(3-OH)]DC[Dab][AEEA][AEEA]-{NH(CH2)12COOH}; thioether N-14): the IC50 was found to be 52.4 nM.

With `COc1ccc(C[C@@H]2NC(=O)[C@H](Cc3cccc(C)c3)NC(=O)[C@H](CC(=O)O)NC(=O)[C@H](Cc3ccc(OCC(=O)O)cc3)NC(=O)[C@H](Cc3ccncc3)NC(=O)CSC[C@@H](C(=O)N[C@@H](CCN)C(=O)NCCOCCOCC(=O)NCCOCCOCC(=O)NCCCCCCCCCCCCC(=O)O)NC(=O)[C@H](CO)NC(=O)[C@H](C(C)(C)O)NC(=O)[C@H](CC3CCCCC3)NC(=O)[C@H](CCN)NC(=O)[C@@H](CC(C)C)NC(=O)[C@H](CCCN)NC(=O)[C@H](Cc3ccc(OCC(=O)O)cc3)NC(=O)[C@H](Cc3ccc(-c4ccccc4)cc3)NC2=O)cc1` [Compound 2894] ({CH2CO}-[4Pal]Y(Carboxymethyl)D[Phe(3-Me)]Y(Me)[Bip]Y(Carboxymethyl)[Orn][dL][Dab][Cha][Val(3-OH)]SC[Dab][AEEA][AEEA]-{NH(CH2)12COOH}; thioether N-14), the IC50 came to 259 nM.

With `Cc1cccc(C[C@@H]2NC(=O)[C@H](CC(=O)O)NC(=O)[C@H](Cc3ccc(OCC(=O)O)cc3)NC(=O)[C@H](CCN)NC(=O)CSC[C@@H](C(=O)N[C@@H](CCN)C(=O)NCCOCCOCC(=O)NCCOCCOCC(=O)N[C@@H](CCC(=O)NCC(=O)NCCCCCCCCCCCCC(=O)O)C(=O)O)NC(=O)[C@H](Cc3cnc[nH]3)NC(=O)[C@H](C(C)(C)O)NC(=O)[C@H](CC3CCCCC3)NC(=O)[C@H](CCN)NC(=O)[C@@H](CC(C)C)NC(=O)[C@H](CCCN)NC(=O)[C@H](Cc3ccc(C(=O)O)cc3)NC(=O)[C@H](Cc3ccc(-c4ccccc4)cc3)NC(=O)[C@H](Cc3ccc(C(=O)O)cc3)NC2=O)c1` [Compound 1256] ({CH2CO}-[Dab]Y(Carboxymethyl)D[Phe(3-Me)][Phe(4-COOH)][Bip][Phe(4-COOH)][Orn][dL][Dab][Cha][Val(3-OH)]HC[Dab][AEEA][AEEA][γGlu]G-{NH(CH2)12COOH}; thioether N-14), the IC50 was found to be 9.9 nM.

Turning to `CC[C@H](C)[C@@H]1NC(=O)[C@H](Cc2ccc(-c3ccccc3)cc2)NC(=O)[C@H](C(C)C)NC(=O)[C@H](Cc2cccc(C)c2)NC(=O)[C@H](CC(=O)O)NC(=O)[C@H](Cc2ccc(C(=O)O)cc2)NC(=O)[C@H](Cc2ccncc2)NC(=O)CSC[C@@H](C(=O)NCCOCCOCC(=O)N[C@@H](CCCNC(=N)N)C(=O)NCCCCCCCCCCC(=O)O)NC(=O)[C@H]([C@@H](C)O)NC(=O)[C@H](C(C)C)NC(=O)[C@H](CC2CCCCC2)NC(=O)[C@H](CCN)NC(=O)[C@@H](CC(C)C)NC(=O)[C@H](CCCN)NC1=O` [Compound 1192] ({CH2CO}-[4Pal][Phe(4-COOH)]D[Phe(3-Me)]V[Bip]I[Orn][dL][Dab][Cha]VTC[AEEA]R[Aun]-OH; thioether N-14), the half-inhibitory concentration (IC50) turned out to be 45.5 nM.

The values are drawn from patent publication US20260022142A1, “MACROCYCLIC IMMUNOMODULATORS” (Bristol-Myers Squibb Company, priority 2022, published 2026).
